Measured values as given in US6479548B2, “Substituted stilbenes as glucose uptake enhancers” (Telik, Inc., priority 2000, dated 2002).

Columns and labels:
[1] = target: T1, complete β-kinase domain of the human insulin receptor (CKD) (Homo sapiens, UniProt P06213); assay: 32P-CKD autophosphorylation assay; assay type: biochemical; details: compound at 10 μM, phosphorylation of CKD expressed as % of the vehicle level; for activity at 10 µM: 10 min, read-out: Activity (% vs. control)
T1 construct: The complete β-kinase domain of the human insulin receptor (CKD); made in house
Method: The complete β-kinase domain of the human insulin receptor (CKD) was expressed in, and purified from, baculovirus. CKD (4.0 μg/ml), in a solution of 29 mM HEPES (pH 7.6), 0.05% Triton X-100, 10 mM MgCl2, 2 mM MnCl2 (50 μl final volume), is combined with 50 μM ATP, and 5 μCi ^32P-ATP (3000 Ci/mmol).

3T3 L1 fibroblasts = assay: Glucose transport activity (14C-2-deoxy-D-glucose uptake); assay type: cell-based; details: concentration producing increase in glucose transport that is 50% of the response of 100 nM insulin (5.6 nM insulin as lower bound), tested 1 μM to 56 μM
Method: 3T3 L1 fibroblasts (ATCC) were grown in Dulbecco's modified Eagle's medium (DMEM) with 10% fetal bovine serum (FBS). The cells were plated at a density of 3×10^4 cells/well in 24-well plates. Two days after confluence was reached, the cells were treated for 3 days with 0.5 mM isobutylmethylxanthine (IBMX), 1 μM dexamethasone, and 1.7 μM insulin. The cells were then transferred to DMEM with 1.7 μM insulin for 2 more days. The cells were maintained in DMEM with 10% FBS for an additional 4 days. Finally, the cells were serum-starved overnight in 0. 1% bovine serum albumin (BSA) in DMEM. The following day, the medium was replaced with 150 mM NaCl, 1.7 mM KCl, 0.9 mM CaCl2, K2HPO4 (pH 7.4), to which was added either the experimental compound or its vehicle (DMSO). Insulin or its vehicle (0.01% BSA) was diluted in the assay buffer (containing test compound or vehicle, respectively) to a final concentration of 5.6 nM. After incubation for 30 min at 37° C., 5 μCi/ml ^14C-2-deoxy-D-glucose was added, and the incubation was continued for an additional 30 min at 37° C. The cells were then washed 3 times with ice-cold PBS/20 mM glucose and lysed in 250 μl of lysis buffer (50 mM HEPES pH 7.6, 1% Triton X-100) for 30 min at room temperature. Radioactivity in the lysate was quantified by scintillation counting.
Once ^14C-2-deoxy-D-glucose is transported into the cell, it is not released. Glucose transport is, therefore, proportional to the amount of radioactivity in the lysate. […] The concentration of compound necessary to produce an increase in glucose transport that is 50% of the response of 100 nM insulin (using 5.6 nM insulin as the lower bound) was calculated as the EC50 (effective concentration).

T1 sequence (P06213 1023-1298 limits assumed): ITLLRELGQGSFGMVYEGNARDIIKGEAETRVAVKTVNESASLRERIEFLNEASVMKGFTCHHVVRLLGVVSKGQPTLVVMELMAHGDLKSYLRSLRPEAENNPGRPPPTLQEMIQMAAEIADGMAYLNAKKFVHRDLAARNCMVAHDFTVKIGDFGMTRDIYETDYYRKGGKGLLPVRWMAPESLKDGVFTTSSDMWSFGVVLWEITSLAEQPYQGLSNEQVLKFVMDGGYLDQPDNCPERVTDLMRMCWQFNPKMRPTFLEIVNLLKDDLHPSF

activity at 10 µM [1] | Compound | Activity (% vs. control) [1] | EC50 (3T3 L1 fibroblasts) | EC50 (3T3 L1 fibroblasts; Mus musculus, 3T3-L1)
 | 5-((1E)-2-phenylvinyl)-2-({4-[(4-carboxyphenyl)-N-methylcarbonylamnino]phenyl}-N-methylcarbonylamino)benzoic acid [Compound 20] | 112% | 109 µM | 
112% | CNc1ccc(C(=O)Nc2ccc(/C=C/c3ccc(C(=O)O)cc3)cc2C(=O)O)cc1 [Compound 23, 5-[(1E)-2-(4-carboxyphenyl)vinyl]-2-{[4-(methylamino)phenyl]carbonylamino}-benzoic acid] |  |  | 98 µM
126% | O=C(O)Cc1ccc(/C=C/c2ccc(NC(=O)c3ccccc3C(=O)O)cc2)cc1 [Compound 24, 2-[N-(4-{(1E)-2-[4-(carboxymethyl)phenyl]vinyl}phenyl)carbamoyl]benzoic acid] |  |  | 414 µM
